# Source: ChEMBL document CHEMBL1201862, “PubChem BioAssay data set” (2004)
# Activity calls are given as the source filed them. Cut-off read from the data, not from the text of the source: actives have a measured IC50 and inactives only a lower limit.
# Target: Envelope glycoprotein gp160 (Human immunodeficiency virus 1, UniProt Q6QLK5)
# Assay: cell-free HIV fusion peptide-binding blockers – biochemical, uHTS, fluorescence dequenching, […] (AID 1986)
# Sequence of Envelope glycoprotein gp160 (Q6QLK5 whole entry, the tested form may be a part): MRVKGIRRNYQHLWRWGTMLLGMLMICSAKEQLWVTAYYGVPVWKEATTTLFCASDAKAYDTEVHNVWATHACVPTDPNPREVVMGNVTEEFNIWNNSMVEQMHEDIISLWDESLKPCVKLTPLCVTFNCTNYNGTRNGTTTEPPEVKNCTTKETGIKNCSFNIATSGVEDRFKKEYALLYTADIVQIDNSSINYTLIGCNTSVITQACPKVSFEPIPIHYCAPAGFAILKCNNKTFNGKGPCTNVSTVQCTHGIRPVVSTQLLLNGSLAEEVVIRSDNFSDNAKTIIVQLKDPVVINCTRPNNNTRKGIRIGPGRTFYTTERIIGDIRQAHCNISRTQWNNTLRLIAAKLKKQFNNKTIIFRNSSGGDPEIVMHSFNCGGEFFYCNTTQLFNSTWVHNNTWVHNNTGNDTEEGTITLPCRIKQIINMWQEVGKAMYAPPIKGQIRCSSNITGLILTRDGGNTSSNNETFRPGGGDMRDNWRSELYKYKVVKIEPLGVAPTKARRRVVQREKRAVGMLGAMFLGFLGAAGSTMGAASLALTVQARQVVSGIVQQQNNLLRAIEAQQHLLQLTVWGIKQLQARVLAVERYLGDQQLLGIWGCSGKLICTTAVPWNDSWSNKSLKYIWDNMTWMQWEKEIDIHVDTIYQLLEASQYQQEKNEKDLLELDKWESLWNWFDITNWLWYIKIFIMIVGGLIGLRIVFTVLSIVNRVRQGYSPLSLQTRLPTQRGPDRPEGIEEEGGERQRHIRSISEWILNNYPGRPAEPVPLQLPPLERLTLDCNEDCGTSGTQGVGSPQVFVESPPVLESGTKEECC
row,Compound,IC50
1,COc1cc(/C=C(\C#N)c2nc3cc(C)ccc3[nH]2)cc([N+](=O)[O-])c1O,18.7 µM (active)
2,CCc1ccc(/C=C2\SC(=S)N(CCCC(=O)Nc3ccccc3C(=O)O)C2=O)cc1,12.4 µM (active)
3,CCOc1ccc(C2C(C(=O)Nc3ccccc3)=C(C)N=c3s/c(=C/c4cccc(OCC(=O)O)c4)c(=O)n32)cc1 (stereo not drawn),28.8 µM (active)
